Tests used:
[1] = target: T1, rNaGLT1 (Rattus norvegicus, UniProt Q80T22, M166I/S3F); test: Uptake of [14C] fructose by HEK293 cells transfected with rNaGLT1; type: cell-based; settings: [14C] fructose 0.1 mM, 15 minutes at 37° C., glucose analog 30 mM, phloridzin or phloretin 50 μM; for Uptake of [14C] fructose by HEK293 cells expressing rNaGLT1: vector uptake deducted
T1 construct: expressed in transfected cells; host or cells: HEK293 cells, transient transfection, assayed 2 days later
T1 sequence (Q80T22 1-484 S3F/M166I): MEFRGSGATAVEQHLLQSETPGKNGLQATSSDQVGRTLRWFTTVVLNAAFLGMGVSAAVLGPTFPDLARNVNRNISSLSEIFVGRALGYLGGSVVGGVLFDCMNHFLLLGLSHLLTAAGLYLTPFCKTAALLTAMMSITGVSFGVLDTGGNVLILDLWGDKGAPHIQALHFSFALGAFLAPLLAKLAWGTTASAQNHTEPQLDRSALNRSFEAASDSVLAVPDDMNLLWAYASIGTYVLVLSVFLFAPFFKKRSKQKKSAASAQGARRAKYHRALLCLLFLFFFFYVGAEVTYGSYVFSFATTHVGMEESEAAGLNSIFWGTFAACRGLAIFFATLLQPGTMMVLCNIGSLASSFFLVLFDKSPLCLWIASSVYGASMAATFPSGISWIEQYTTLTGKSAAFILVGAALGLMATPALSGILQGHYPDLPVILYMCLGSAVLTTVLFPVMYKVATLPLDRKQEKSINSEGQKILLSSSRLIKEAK
Protocol: As to HEK293 cells incubated with buffer solution containing glucose analog (0.1 mM, 37 kBq/ml) for 15 minutes at 37° C., uptake analysis was conducted 2 days after the transfection of a vector (white column, 0.8 μg/well) or rNaGLT1 cDNA (black column, 0.8 μg/well). Each column indicates mean±S.E.M obtained from 3 single layers.
In the presence and absence of phloridzin (50 μM) or phloretin (50 μM), a glucose analog (30 mM), the uptake of [^14C] fructose (0.1 mM, 37 kBq/ml) by HEK293 cells transfected with rNaGLT1 was measured for 15 minutes at 37° C., and the uptake measured in HEK293 cells transfected with a vector was deducted. […] The values indicate mean±S.E.M of 3 independent experiments, respectively.

[2] = target: T2, NaGLT1 (Rattus norvegicus, UniProt Q80T22, M166I/S3F); test: Effect of inhibitors on uptake of [14C]-labeled αMeGlc by NaGLT1-expressing oocytes; type: cell-based
T2 construct: expressed in transfected cells; host or cells: Xenopus oocytes injected with NaGLT1 RNA synthesized in vitro
T2 sequence (Q80T22 1-484 S3F/M166I): T1 sequence (Q80T22 1-484 S3F/M166I)
Protocol: (§1) Uptake activity of NaGLT1 cRNA-injected cell and water-injected oocyte to [U-^14C]-α-methyl-D-glucopyranoside (α-MeGlc), D-[1-^14C] galactose, D-[U-^14C] mannose, D-[U-^14C] fructose, [1,2-^3H]-2-deoxy-glucose, D-[1-^3H] mannitol, [U-^14C] sucrose was measured. At that time, incubation was conducted in a buffer solution comprising 96 mM NaCl, 2 mM KCl, 1.8 mM CaCl2, 1 mM MgCl2, 5 mM HEPES (pH 7.4). Further, when extracellular Na^+ concentration dependency was conducted, the concentration of NaCl was adjusted to be within the range of 9.6 to 96 mM, and the final osmotic pressure was kept constant by making up for the shortage to 96 mM with choline chloride (FIGS. 6 and 7).

[3] = system: renal brush border membrane vesicles; test: Na+-dependent uptake of [14C] fructose by renal brush border membrane vesicles; type: biochemical, rat; settings: [14C] fructose 2 mM, 15 seconds at 25° C., glucose analog 30 mM, phloridzin or phloretin 50 μM; for Na+-dependent uptake of [14C] fructose by renal brush border membrane vesicles: KCl uptake deducted
Protocol: Membrane vesicles (20 μl) suspended in 100 mM mannitol and 10 mM HEPES (pH 7.5) were incubated with a substrate mixture (20 μl) containing 100 mM mannitol, 200 mM NaCl (black circle: ●) or KCl (white circle: ∘), 4 mM [^14C] fructose and 10 mM HEPES (pH 7.5) at 25° C. The values indicate mean±S.E.M of 3 independent experiments, respectively. Each experiment was conducted with brush border membrane vesicles isolated from 5 rats.
Na^+-dependent uptake of fructose by renal brush border membrane vesicles was analyzed in the presence of NaCl in an incubation buffer solution of various concentrations (0.1 to 20 mM) for 15 seconds at 25° C., and the uptake in case where NaCl is substituted with KCl was deduced. […] Each point indicates mean±S.E.M of 3 measurements. The apparent Km and Vmax values were obtained from 3 independent experiments.
In the presence and absence of phloridzin (50 μM) or phloretin (50 μM), a glucose analog (30 mM), membrane vesicles (20 μl) suspended in 100 mM mannitol and 10 mM HEPES (pH 7.5) were incubated with a substrate mixture (20 μl) containing [^14C] fructose (finally, 2 mM, 74 kBq/ml) for 15 seconds at 25° C., and the uptake in case where NaCl is substituted with KCl was deduced. […] The values indicate mean±S.E.M of 3 independent experiments, respectively.

[4] = target: T2, NaGLT1; test: Uptake of radio-labeled saccharides by NaGLT1-expressing Xenopus oocytes; type: cell-based
Protocol: Transportation activity of NaGLT1 was examined with the expression system of Xenopus oocytes (hereinafter abbreviated as oocytes). First, in order to examine the selectivity of various saccharides, NaGLT1 RNA synthesized in vitro was injected into the oocyte and incubated for 2 days at 18° C., then used for the experiment.
as §1
Next, concentration dependency of αMeGlc uptake was examined by using NaGLT1-expressing oocytes. […] In addition, the effect of extracellular Na^+ ion concentration on the uptake of αMeGlc mediated by NaGLT1 was analyzed. First, extracellular Na^+ concentration was varied from 0 to 96 mM, at the state wherein membrane potential difference was eliminated by the addition of 7 μM valinomycin, and the effect of extracellular Na^+ on the uptake of αMeGlc by rNaGLT1 was examined. […] Further, by examination of dose- or extracellular Na^+-dependancy to the uptake of αMeGlc by rNaGLT1 (FIGS. 6A and 6C), Vmax value (the maximum transport rate) and Km value were calculated for each case. Based on those values, Hill plot (logarithmic values of the figure calculated by dividing Vmax by transport rate V when the abscissa axis is the concentration of varied substrate or ion, and ordinate axis is each substrate (or ion) concentration) was conducted (FIGS. 6B and 6D) and Hill coefficient was calculated. […]

Structure (SMILES)	Uptake of [14C] fructose by HEK293 cells expressing rNaGLT1, % of control [1]	effect on the uptake of [14C]-labeled αMeGlc [2]	Na+-dependent uptake of [14C] fructose by renal brush border membrane vesicles, % of control [3]	Na+-dependent uptake of [14C] fructose by renal brush border membrane vesicles [3]	Uptake of [14C] fructose by HEK293 cells expressing rNaGLT1 [1]	Hill coefficient ([4]; Hill plot of αMeGlc uptake by rNaGLT1, dose- or extracellular Na+-dependency)	Km ([4]; NaGLT1-expressing oocytes, concentration dependency, read-out: Km value of αMeGlc uptake)	uptake of radio-labeled saccharide in comparison to water-injected oocytes ([4]; NaGLT1 RNA-injected Xenopus oocytes, incubated 2 days at 18° C.)
O=C(CCc1ccc(O)cc1)c1c(O)cc(O)cc1O[C@@H]1O[C@H](CO)[C@@H](O)[C@H](O)[C@H]1O [Phloridzin, phloridzin]	12 % of control							
O=C(CO)[C@@H](O)[C@H](O)[C@H](O)CO [Fructose, fructose]	8 % of control	weak inhibitory effect	11 % of control	5.4 ± 2.1 Pmol/mg protein/sec	0.22 ± 0.06 Pmol/mg protein/min			
CO[C@H]1O[C@H](CO)[C@@H](O)[C@H](O)[C@H]1O [αMeGlc, α-methyl-D-glucopyranoside]	42 % of control	extremely strong inhibitory effect	48 % of control	23.8 ± 2.1 Pmol/mg protein/sec	1.24 ± 0.13 Pmol/mg protein/min	1.06	3.71 ± 0.09 mM	significantly high
O=C[C@H](O)[C@@H](O)[C@@H](O)[C@H](O)CO [Galactose, galactose]	99 % of control	no effect	71 % of control	35.2 ± 3.3 Pmol/mg protein/sec	2.88 ± 0.23 Pmol/mg protein/min			
OC[C@H]1O[C@H](CO)[C@@H](O)[C@@H]1O [2,5-AM]	40 % of control		78 % of control	38.6 ± 2.6 Pmol/mg protein/sec	1.16 ± 0.16 Pmol/mg protein/min			
CO[C@@H]([C@H](O)[C@H](O)CO)[C@@H](O)C=O [3-OMG, 3-O-methylglucose]	89 % of control	no effect	95 % of control	47.1 ± 4.5 Pmol/mg protein/sec	2.60 ± 0.15 Pmol/mg protein/min			
O=C[C@@H](O)[C@H](O)[C@@H](O)[C@@H](O)CO [L-glucose]		no effect						
OC[C@H]1O[C@@](CO)(O[C@H]2O[C@H](CO)[C@@H](O)[C@H](O)[C@H]2O)[C@@H](O)[C@@H]1O [Sucrose, sucrose]	144 % of control		96 % of control	47.3 ± 6.0 Pmol/mg protein/sec	4.20 ± 0.17 Pmol/mg protein/min			
O=CC[C@@H](O)[C@H](O)[C@H](O)CO [2-DG, 2-deoxyglucose]	70 % of control	extremely strong inhibitory effect	34 % of control	16.8 ± 3.7 Pmol/mg protein/sec	2.04 ± 0.19 Pmol/mg protein/min			
O=C[C@H](O)[C@@H](O)[C@H](O)[C@H](O)CO [D-glucose]		extremely strong inhibitory effect						
O=C(CCc1ccc(O)cc1)c1c(O)cc(O)cc1O [Phloretin, phloretin]	33 % of control	weak inhibitory effect	72 % of control	35.8 ± 3.5 Pmol/mg protein/sec	0.97 ± 0.09 Pmol/mg protein/min			

Source: patent US20060116505A1, “Glucose and/or fructose transporter naglt1 and its gene” (priority 2002, published 2006)
